The record followed here is a melting point compilation (Tetko et al.).

Broadly, the melting point is the temperature, or range, at which the solid turns liquid. Consider `CC(C)c1ccc(N2CCC(C(=O)O)C2=O)cc1` (stereo unspecified), for which the melting point was 129 to 131 °C.

Take `NC(=O)c1ccc(N)c(F)c1`: the melting point is 152 to 154 °C.

`O=C(O)C=Cc1ccnc2ccccc12` came in with a melting point of 256 to 258 °C.

`COCC1(O)CCNCC1` showed a melting point of 54 to 56 °C.

`COC(=O)c1sc(N)nc1C(C)(C)C` came in with a melting point of 158 to 160 °C.

The compound `COC(=O)c1nonc1N` came in with a melting point of 115 to 117 °C.

In the case of `Cc1ccc(C(=O)Cc2ccccn2)cc1`, the melting point is 73 to 75 °C.

Compound `CNC(=O)c1ccc(NC(=O)CCl)cc1` showed a melting point of 206 to 208 °C.

Regarding `Cc1nn(C)c(Br)c1C#N`, the melting point was in the range of 109 to 111 °C.

Turning to `Cc1ccc(NS(=O)(=O)c2ccc(Cl)c([N+](=O)[O-])c2)c(C)c1`, the melting point was in the range of 99 to 101 °C.

In the case of `Cn1c(CO)nc2cc(Cl)ccc21`, the melting point lay in the range of 179 to 181 °C.

`Fc1ccc(COc2ccc(CCl)cc2)cc1`: the melting point was 57 to 59 °C.

As for `Cc1cc(Br)ccc1N1CCCS1(=O)=O`, the melting point fell in the range of 77 to 79 °C.

With `CC(Cl)c1ncc(-c2ccccc2)o1` (stereo unspecified), the melting point was in the range of 54 to 56 °C.

Compound `ClC(Cl)(Cl)C(c1ccc(Br)cc1)c1ccc(Br)cc1` came in with a melting point of 144 to 146 °C.

Turning to `Nc1ccc(Oc2ccc(F)cc2)cn1`, the melting point was 74 to 76 °C.

In the case of `O=C(CCl)NCc1ccccc1CS(=O)(=O)N1CCOCC1`, the melting point is 118 to 120 °C.

Take `Cc1cc(OS(C)(=O)=O)nc2c1cnn2C(C)C`: the melting point fell in the range of 78 to 80 °C.

Take `CN1CCN(c2ncc(Br)cc2CO)CC1`: the melting point was 140 to 142 °C.

As for `CCOc1ccc(C(=O)NCC(=O)O)cc1`, the melting point lay in the range of 154 to 156 °C.

Regarding `CNC(=O)COc1ccc(CC(=O)O)cc1`, the melting point was in the range of 143 to 145 °C.

Compound `CCN(CC)C(=O)c1ccc(C(=O)O)cc1` displayed a melting point of 157 to 159 °C.

In turn, `Cc1nnnn1-c1ccc(Br)cc1` had a melting point of 116 to 118 °C.

In turn, `c1cncc(-c2ncc[nH]2)c1` registered a melting point of 208 to 210 °C.

`Nc1ccc(CN2CCN(Cc3ccccc3)CC2)cc1` gave a melting point of 96 to 98 °C.

For the compound `O=c1[nH]c2ccc(S(=O)(=O)Cl)cc2[nH]c1=O`, the melting point lay within 304 to 306 °C.

The compound `NS(=O)(=O)CCCC(F)(F)F` displayed a melting point of 66 to 68 °C.

Consider `O=C(O)c1cc(S(=O)(=O)Cl)c(Br)o1`, for which the melting point lay in the range of 139 to 141 °C.

As for `Cc1ccc(N(C(=O)CCl)C2C=CS(=O)(=O)C2)cc1C` (stereo unspecified), the melting point is 136 to 138 °C.

`CN1CCCCC/C1=N\S(=O)(=O)c1cccc(N)c1`: the melting point lay in the range of 172 to 174 °C.

`COC(=O)c1ccc(NS(C)(=O)=O)cc1` registered a melting point of 147 to 149 °C.

`CC1CSc2ccccc2NC1=O` (stereo unspecified): the melting point lay within 178 to 180 °C.

`O=C(O)c1ncn(-c2ccccc2)n1` showed a melting point of 179 to 181 °C.

For `COc1ccc(C(=O)O)c(Cl)c1`, the melting point is 209 to 211 °C.

`O=C(O)CCn1cc(Br)cn1` yielded a melting point of 112 to 114 °C.

With `COC(=O)C(O)c1cccc(Cl)c1` (stereo unspecified), the melting point lay within 80 to 82 °C.

As to `CC(C)c1ccc(C=NO)cc1`, the melting point fell in the range of 64 to 66 °C.

`ClCc1nnc(-c2ccccc2Br)o1`: the melting point lay within 104 to 107 °C.

The compound `COC(=O)C(Cc1c[nH]c2ccccc12)NC(=O)CCl` (stereo unspecified) had a melting point of 130 to 132 °C.

`Cc1cc(C=O)ccc1[N+](=O)[O-]`: the melting point was in the range of 65 to 67 °C.

`COc1ccc(CNc2nccs2)cc1` came in with a melting point of 147 to 149 °C.

`CC1CC(C(=O)O)CCC1=O` (stereo unspecified) yielded a melting point of 69 to 71 °C.

Take `Nc1ccnn1Cc1ccc(F)cc1`: the melting point was in the range of 59 to 61 °C.

As for `S=C(Nc1ccccc1)N1CCCCC1`, the melting point was in the range of 99 to 101 °C.

`O=C(O)c1cnc(OCC(F)(F)F)c(Cl)c1` registered a melting point of 162 to 164 °C.

Consider `Nc1ncn(Cc2ccccc2)n1`, for which the melting point lay in the range of 130 to 132 °C.

As for `O=C(O)c1ccccc1-n1cnnn1`, the melting point fell in the range of 190 to 194 °C.

`COc1ccc(N2C(=O)CCC(C(=O)O)C2c2ccccc2OC)cc1` (stereo unspecified): the melting point lay within 205 to 208 °C.

The compound `Nc1nnc(-c2cccc(Br)c2)o1` returned a melting point of 209 to 211 °C.

Turning to `Cc1nn(-c2ccccc2F)c(C)c1CC(=O)O`, the melting point lay within 174 to 176 °C.

The compound `O=C(Nc1cccc(O)c1)c1ccccc1` had a melting point of 171 to 173 °C.

On to `CC(C)NC(=O)Nc1ccccc1N`, for which the melting point was 317 to 319 °C.

`Fc1cccc(CBr)c1Cl` came in with a melting point of 39 to 41 °C.

In turn, `N#Cc1cccc(NC(=O)CCCl)c1` showed a melting point of 98 to 100 °C.

`O=C(O)c1cc([N+](=O)[O-])cc(F)c1F`: the melting point lay in the range of 132 to 134 °C.

`O=Cc1cn(Cc2cccnc2)nn1`: the melting point is 97 to 99 °C.

As for `Cc1cc2c(cc1Br)NC(=O)C(C)O2` (stereo unspecified), the melting point fell in the range of 208 to 210 °C.

As to `CC(C)c1nnc(C(C)C)[nH]1`, the melting point was 147 to 149 °C.

`CCOC(=O)CCc1nnc(-c2ccc(Cl)cc2)o1` returned a melting point of 100 to 102 °C.

Compound `Clc1cc(N2CCCC2)ncn1` registered a melting point of 93 to 95 °C.

For `Nc1nnc(-c2ccsc2)s1`, the melting point fell in the range of 211 to 213 °C.

`Cc1ccc(C(=O)NCC(=O)O)cc1C` yielded a melting point of 160 to 162 °C.

Regarding `Cc1c[nH]c(=O)n1-c1ccccc1F`, the melting point was 211 to 213 °C.

The compound `Cc1ncc(CN2CCNCC2)s1` showed a melting point of 79 to 81 °C.

On to `O=C(O)C1CCSCC1`, for which the melting point was 109 to 111 °C.

The compound `O=S(=O)(O)c1ccnc2ccccc12` displayed a melting point of 317 to 319 °C.

`O=C(O)CNc1ccc(C(F)(F)F)cn1` returned a melting point of 134 to 136 °C.

`CCn1c(SCC(=O)O)nnc1-c1ccco1` registered a melting point of 173 to 175 °C.

In the case of `CC(=O)Nc1cc(N)ccc1Cl`, the melting point lay in the range of 200 to 202 °C.

`Cc1nn(-c2ccccc2)c(N2CCCCC2)c1C=O` had a melting point of 75 to 77 °C.

In turn, `CC(O)c1ccc(NC(=O)c2ccccc2)cc1` (stereo unspecified) had a melting point of 164 to 166 °C.

Regarding `CCOc1cc(/C=N/O)ccc1O`, the melting point is 104 to 106 °C.

On to `Cc1oc(N)c(C#N)c1C`, for which the melting point lay within 163 to 169 °C.

Compound `COc1cc(NS(=O)(=O)c2ccc(N)cc2)cc(OC)c1` displayed a melting point of 153 to 155 °C.

`Cn1c(C(=O)O)cc2c(=O)n3ccccc3nc21` displayed a melting point of 288 to 290 °C.

As to `CCCCOc1ccc(-c2nnc(N)o2)cc1`, the melting point is 229 to 231 °C.

Consider `O=C(O)c1nccn2ccnc12`, for which the melting point was in the range of 167 to 169 °C.

Consider `CCOc1ccccc1NC1=NCCS1`, for which the melting point was in the range of 55 to 57 °C.

The compound `CC(C)CNC(=O)CC#N` showed a melting point of 57 to 59 °C.

In turn, `O=[N+]([O-])c1ccc2[nH]c3c(c2c1)CCCC3` gave a melting point of 172 to 174 °C.

With `N#Cc1ccc(Oc2ccccc2O)c(F)c1`, the melting point was in the range of 97 to 99 °C.

In turn, `CS(=O)(=O)c1ccc2c(c1)NCCO2` returned a melting point of 117 to 119 °C.

The compound `O=C(Nc1cc(Cl)ccc1C(=O)O)c1ccc(F)cc1` registered a melting point of 250 to 252 °C.

`CC(C)S(N)(=O)=O` yielded a melting point of 44 to 46 °C.

The compound `O=C(O)c1ccc2c(=O)[nH][nH]c(=O)c2c1` gave a melting point of 250 to 252 °C.

`COc1ccc(-n2c(S)nc3sc4c(c3c2=O)CCCC4)cc1` gave a melting point of 312 to 314 °C.

Regarding `CC(C)OCc1ccc(C(=O)O)cc1`, the melting point lay in the range of 114 to 116 °C.

Regarding `O=C(O)C=Cc1ccc(-n2cc(Br)cn2)c(F)c1`, the melting point lay in the range of 204 to 206 °C.

`Cc1coc(-c2cc(N)ccc2C)n1`: the melting point was in the range of 52 to 54 °C.

Regarding `O=Cc1ccc(-c2cccc(F)c2)s1`, the melting point was in the range of 101 to 103 °C.

The compound `O=C(O)c1cocn1` registered a melting point of 129 to 131 °C.

Turning to `Cc1ccccc1-c1nnc(S)n1N`, the melting point fell in the range of 199 to 201 °C.

Compound `CNc1ccc([N+](=O)[O-])c(C)c1` gave a melting point of 90 to 92 °C.

The compound `O=c1[nH]c(S)nc2cc(Cl)ccc12` returned a melting point of 306 to 308 °C.

`Cc1cc(N)ccc1NS(C)(=O)=O`: the melting point fell in the range of 141 to 143 °C.

As to `O=C(O)c1nn(-c2ccccc2C(F)(F)F)cc1O`, the melting point is 141 to 145 °C.

`CC(Cl)C(=O)N1CCN(c2ncccn2)CC1` (stereo unspecified) displayed a melting point of 96 to 98 °C.

`Cc1nn(CC(C)C)c(C)c1CC(=O)O` returned a melting point of 106 to 110 °C.

In turn, `Fc1cc2ncc(Cl)nc2cc1F` returned a melting point of 91 to 93 °C.

On to `COc1ccc(C(=O)c2ccccc2Cl)cc1`, for which the melting point fell in the range of 77 to 79 °C.

As for `Cc1nc(COc2ccc(/C=C/C(=O)O)cc2)cs1`, the melting point lay within 185 to 187 °C.

`NNC(=O)NCC(F)(F)F`: the melting point was 68 to 70 °C.

Compound `CC(=O)N(c1ccc(Cl)cc1)c1nc(C=O)cs1` displayed a melting point of 210 to 212 °C.

As to `CCOC(=O)C1CC(=O)NN1c1ncccc1Cl` (stereo unspecified), the melting point is 135 to 137 °C.

For `Cc1nn(C)c(Cl)c1CO`, the melting point is 92 to 94 °C.

`NS(=O)(=O)c1ccc(-c2cccc(C(F)(F)F)c2)c(C(=O)O)c1` yielded a melting point of 181 to 183 °C.

In turn, `O=S(=O)(c1ccc2c(c1)CCC2)N1CCNCC1` showed a melting point of 90 to 92 °C.

`Cc1cc(=O)c(C(=O)O)nn1-c1ccccc1` yielded a melting point of 167 to 169 °C.

On to `CCOC(=O)c1ccc(C(=O)O)nc1C`, for which the melting point was in the range of 88 to 90 °C.

On to `C1=CNc2cccc(=C3N=c4ccncc4=N3)c2=C1`, for which the melting point lay within 316 to 318 °C.

`Cc1nn(-c2ccc(F)cc2)c(Cl)c1C=O` registered a melting point of 124 to 126 °C.

Consider `CCn1c(S)nc2cc(S(=O)(=O)N3CCOCC3)ccc21`, for which the melting point was in the range of 227 to 229 °C.

In turn, `Fc1ccc2nc(NCc3ccccc3)sc2c1` gave a melting point of 182 to 184 °C.

`Cc1ccc(Cn2nc(C)c(/C=C/C(=O)O)c2C)cc1`: the melting point was in the range of 161 to 163 °C.

`CN(C)C(=O)CC(=O)O` came in with a melting point of 70 to 72 °C.

For `CC1CNc2ccccc2NC1`, the melting point was 82 to 84 °C.

`O=[N+]([O-])c1cc2nc(Cl)ccc2cc1F` showed a melting point of 130 to 132 °C.

With `CC(C)C(=O)NC1(C#N)CCCC1`, the melting point is 56 to 58 °C.

For the compound `O=C(O)c1oc2ccccc2c1CSc1cccs1`, the melting point was 166 to 168 °C.

Compound `O=C(CCCc1cccs1)Nc1cccc(C(=O)O)c1` registered a melting point of 198 to 200 °C.

Take `CC(=O)c1nnn(-c2cccc(Br)c2)c1C`: the melting point lay in the range of 74 to 76 °C.
